The inhibition is the relative decrease from the control value, in per cent.

Activity calls are given as the source filed them.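 Rule for the calls: active = EGR1 protein level in colon cancer cells shifted at least 30% from solvent-only cells, up or down; inactive = shift under 30% either way.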

Experimental findings from PubChem BioAssay AID588665 (The Scripps Research Institute Molecular Screening Center, 2011) are described below.

The target in the experiment is Early growth response protein 1 (Homo sapiens) (UniProt P18146). Nature of the experiment: altered EGR1 protein amount, SW620 – cell-based, SW620 colorectal carcinoma, chemiluminescent western blot, counter-screen for KLF5 inhibitor project, late-stage follow-up (AID 588665). To be noted: SW620 EGR1 protein level, 24 h, at 10 µM, hits give high values. (In western blotting, separated proteins are transferred to a membrane and probed.)
Sequence of Early growth response protein 1 (Homo sapiens) (P18146 whole entry, looked up): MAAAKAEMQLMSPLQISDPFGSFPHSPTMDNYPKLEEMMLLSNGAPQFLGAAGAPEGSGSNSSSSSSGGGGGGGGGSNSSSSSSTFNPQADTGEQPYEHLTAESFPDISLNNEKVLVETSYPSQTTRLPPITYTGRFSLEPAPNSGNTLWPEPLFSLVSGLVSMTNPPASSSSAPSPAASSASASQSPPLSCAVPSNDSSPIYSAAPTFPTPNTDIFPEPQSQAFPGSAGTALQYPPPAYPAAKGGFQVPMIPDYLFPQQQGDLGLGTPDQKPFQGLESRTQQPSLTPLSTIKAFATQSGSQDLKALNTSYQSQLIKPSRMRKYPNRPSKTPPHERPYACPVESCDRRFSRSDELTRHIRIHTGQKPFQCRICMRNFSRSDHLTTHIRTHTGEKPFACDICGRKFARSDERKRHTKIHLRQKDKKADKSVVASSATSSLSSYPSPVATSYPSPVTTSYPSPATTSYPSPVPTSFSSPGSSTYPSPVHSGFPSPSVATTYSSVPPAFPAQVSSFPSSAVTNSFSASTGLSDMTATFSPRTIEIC
Consider `CN(C(=O)CNC(=O)/C=C/c1cccc(Cl)c1)C1CCS(=O)(=O)CC1`, for which the inhibition was 37%.

For `CN(C(=O)COC(=O)/C=C/c1cccc([N+](=O)[O-])c1)C1CCS(=O)(=O)C1` (stereo not drawn), the inhibition was -14.8% (inactive).

As for `CN(C(=O)CNC(=O)/C=C/c1cccc(Cl)c1)C1CCS(=O)(=O)C1` (stereo not drawn), the inhibition is -24.8% (inactive).
